{"source": "paper PMC4597613", "about": "“Polyhedra structures and the evolution of the insect viruses” (Journal of Structural Biology, 2015)", "key": {"CPV18 polyhedrin": {"biological_target": "CPV18 polyhedrin (Operophtera brumata cypovirus 18, UniProt Q30C70)", "assay": "X-ray crystal structure of polyhedra, […] A", "assay_type": "binding", "details": "nucleotide trapped in crystal from Sf9 cells, purine cluster"}, "CPV15 polyhedrin": {"biological_target": "CPV15 polyhedrin (Trichoplusia ni cypovirus 15, UniProt Q9ELS6)", "details": "nucleotide trapped in crystal from Sf9 cells; two ATPs in purine cluster site, one on V3 and V2c, the other at the 2-fold axis"}, "CPV20 polyhedrin": {"biological_target": "CPV20 polyhedrin (Simulium ubiquitum cypovirus, UniProt Q0MX25)", "assay": "X-ray crystal structure of polyhedra, […] A", "assay_type": "binding", "details": "nucleotide trapped in crystal from Sf9 cells; pyrimidine region in trimer interface; not well ordered, identity inferred from space and hydrogen bonding"}}, "data": [{"smiles": "Nc1ncnc2c1ncn2[C@@H]1O[C@H](COP(=O)(O)OP(=O)(O)OP(=O)(O)O)[C@@H](O)[C@H]1O", "note": "[ATP]", "values": [{"measurement": "X-ray crystal structure of polyhedra, 1.48 A", "setting": "CPV18 polyhedrin; V4 regions of two chains, H154 to phosphates", "value": "ATP is supported by two V4 regions from different polypeptide chains"}, {"measurement": "X-ray crystal structure of polyhedra, 1.82 A", "setting": "CPV15 polyhedrin", "value": "leaving space for two ATPs in different conformations to CPV1"}]}, {"smiles": "Nc1nc2c(ncn2[C@@H]2O[C@H](COP(=O)(O)OP(=O)(O)OP(=O)(O)O)[C@@H](O)[C@H]2O)c(=O)[nH]1", "note": "[GTP]", "values": [{"measurement": "X-ray crystal structure of polyhedra, 1.48 A", "setting": "CPV18 polyhedrin; V2c and V1", "value": "GTP hydrogen bonds with V2c and V1"}]}, {"smiles": "O=c1ccn([C@@H]2O[C@H](COP(=O)(O)OP(=O)(O)OP(=O)(O)O)[C@@H](O)[C@H]2O)c(=O)[nH]1", "note": "[UTP]", "values": [{"measurement": "X-ray crystal structure of polyhedra, 1.83 A", "setting": "CPV20 polyhedrin", "value": "The pyridine in CPV20 is not well ordered, but can be identified as UTP"}]}]}
